Assay results reported in PMC7377239, “Cardiovascular Effects of Polychlorinated Biphenyls and Their Major Metabolites” (Environmental Health Perspectives, 2020).
Structures can show the parent of a compound that is named as a salt. Where two headings read alike, the source gives them in different places.

System: iCell cardiomyocytes (human iPSC-derived cardiomyocytes)
Assay: High-content imaging of cytotoxicity and mitochondrial integrity in iPSC-CMs
Assay type: cell-based
Conditions: Homo sapiens, Cardiomyocyte; for viability at 0.01 µM / activity at 0.01 µM / viability at 0.1 µM / activity at 0.1 µM / viability at 1 µM / activity at 1 µM / viability at 10 µM / activity at 10 µM / viability at 100 µM / activity at 100 µM: 0.00 µM = 100.00; for viability at 0.1 µM / activity at 0.1 µM: 0.10 µM
Outline: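 Cardiomyocytes grown on gelatinized 384-well plates received fresh medium on the experiment day and were then exposed to chemicals at 0.01–100μM. Nuclei and mitochondria were labeled with Hoechst 33342 and MitoTracker™ Orange, then fixed, and imaged on an ImageXpress® Micro Confocal system. Four-parameter logistic concentration–response fits in R, with a one-standard-deviation vehicle cutoff, gave point-of-departure values.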

[1] = 1.5 h, 90min, read-out: cm.cam.90min
[2] = 1.5 h, 90min, read-out: cm.mii.90min
[3] = 1.5 h, 90min, read-out: cm.mito.90min
[4] = 1.5 h, 90min, read-out: cm.tc.90min
[5] = 24 h, 24hrs, read-out: cm.cam.24hrs
[6] = 24 h, 24hrs, read-out: cm.mii.24hrs
[7] = 24 h, 24hrs, read-out: cm.mito.24hrs
[8] = 24 h, 24hrs, read-out: cm.tc.24hrs

For `O=S(=O)(O)Oc1cc(Cl)c(-c2cc(Cl)ccc2Cl)cc1Cl` [4-yl PCB 52 sulfate], the viability at 0.01 µM [1] was 106%, the activity at 0.01 µM [2] was 103% and the activity at 0.01 µM [3] was 106%. For the same molecule, the viability at 0.01 µM [4] was 106%, the viability at 0.1 µM [1] was 93.3% and the activity at 0.1 µM [2] was 129%. It also gave an activity at 0.1 µM [3] of 92.9%, a viability at 0.1 µM [4] of 92.8% and a viability at 1 µM [1] of 98.7%. It also gave an activity at 1 µM [2] of 130%, an activity at 1 µM [3] of 98.5% and a viability at 1 µM [4] of 98.4%. For the same molecule, the viability at 10 µM [1] was 97.1%, the activity at 10 µM [2] was 109% and the activity at 10 µM [3] was 96.8%. It also gave a viability at 10 µM [4] of 97.1%, a viability at 100 µM [1] of 0.07% and an activity at 100 µM [2] of 31.5%. It also gave an activity at 100 µM [3] of 0.16%, a viability at 100 µM [4] of 0.16% and a minimal effective concentration (1.5 h, 90min, read-out: cm.cam.90min POD) of 10.8 µM. The minimal effective concentration (1.5 h, 90min, read-out: cm.mii.90min POD) was 41.2 µM, the minimal effective concentration (1.5 h, 90min, read-out: cm.mito.90min POD) was 10.6 µM and the minimal effective concentration (1.5 h, 90min, read-out: cm.tc.90min POD) was 10.8 µM. For the same molecule, the viability at 0.01 µM [5] was 95.3%, the activity at 0.01 µM [6] was 98.6% and the activity at 0.01 µM [7] was 93.3%. For the same molecule, the viability at 0.01 µM [8] was 96.5%, the viability at 0.1 µM [5] was 103% and the activity at 0.1 µM [6] was 122%. It also gave an activity at 0.1 µM [7] of 104%, a viability at 0.1 µM [8] of 104% and a viability at 1 µM [5] of 104%. For the same molecule, the activity at 1 µM [6] was 111%, the activity at 1 µM [7] was 104% and the viability at 1 µM [8] was 104%. It also gave a viability at 10 µM [5] of 91.5%, an activity at 10 µM [6] of 107% and an activity at 10 µM [7] of 89.6%. For the same molecule, the viability at 10 µM [8] was 91.7%, the viability at 100 µM [5] was 1.67% and the activity at 100 µM [6] was 12.2%. It also gave an activity at 100 µM [7] of 0.34%, a viability at 100 µM [8] of 3.82% and a minimal effective concentration (24 h, read-out: cm.cam.24hrs POD) of 8.2 µM. For the same molecule, the minimal effective concentration (24 h, read-out: cm.mii.24hrs POD) was 44.6 µM, the minimal effective concentration (24 h, read-out: cm.mito.24hrs POD) was 8.28 µM and the minimal effective concentration (24 h, read-out: cm.tc.24hrs POD) was 8.44 µM.
